Data as given in ChEMBL document CHEMBL4007392, “Modulating Mineralocorticoid Receptor with Non-steroidal Antagonists. New Opportunities for the Development of Potent and Selective Ligands without Off-Target Side Effects” (J Med Chem, 2017).

target: T1, Mineralocorticoid receptor (Homo sapiens, UniProt P08235); experiment: Displacement of [3H]-Aldosterone from MR overexpressed in human 293 cells measured after 2 hrs by Microbeta scintillation counting method; format: cell-based
T1 sequence (P08235 whole entry): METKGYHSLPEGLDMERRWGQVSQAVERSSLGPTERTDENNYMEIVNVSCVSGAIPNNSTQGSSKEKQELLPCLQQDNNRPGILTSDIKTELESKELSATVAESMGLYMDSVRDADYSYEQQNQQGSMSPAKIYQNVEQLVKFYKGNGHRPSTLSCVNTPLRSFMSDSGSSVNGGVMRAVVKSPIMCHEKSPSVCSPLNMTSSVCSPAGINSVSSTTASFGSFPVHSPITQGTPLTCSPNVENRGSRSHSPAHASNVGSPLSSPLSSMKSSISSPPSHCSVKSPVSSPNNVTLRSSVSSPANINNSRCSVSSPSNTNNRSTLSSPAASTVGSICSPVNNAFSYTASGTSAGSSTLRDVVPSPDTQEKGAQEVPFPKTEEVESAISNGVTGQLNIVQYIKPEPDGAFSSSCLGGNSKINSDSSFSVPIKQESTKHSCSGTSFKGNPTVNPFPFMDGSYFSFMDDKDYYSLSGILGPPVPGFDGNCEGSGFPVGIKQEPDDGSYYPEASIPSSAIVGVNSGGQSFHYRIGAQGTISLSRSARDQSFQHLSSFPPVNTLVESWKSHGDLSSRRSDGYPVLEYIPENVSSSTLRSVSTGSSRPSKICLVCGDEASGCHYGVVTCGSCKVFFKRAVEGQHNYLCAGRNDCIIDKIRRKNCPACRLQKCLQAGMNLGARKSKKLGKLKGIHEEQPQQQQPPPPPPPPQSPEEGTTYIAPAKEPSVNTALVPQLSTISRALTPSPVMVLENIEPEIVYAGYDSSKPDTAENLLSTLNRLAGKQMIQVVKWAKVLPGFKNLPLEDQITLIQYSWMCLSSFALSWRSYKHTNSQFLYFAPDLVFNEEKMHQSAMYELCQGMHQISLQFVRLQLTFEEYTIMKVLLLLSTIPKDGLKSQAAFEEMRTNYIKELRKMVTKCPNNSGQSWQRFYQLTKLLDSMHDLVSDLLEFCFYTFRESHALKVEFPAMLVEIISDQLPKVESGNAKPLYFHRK

| SMILES | Ki [nM] |
| --- | --- |
| C[C@@H](CN1CCOCC1)n1/c(=N/C#N)[nH]c2cc(/C=C3/c4ccc(F)cc4OCc4c(F)cccc43)ccc21 | ≤ 10 |
| NC(=O)/N=c1/[nH]c2cc(/C=C3\c4ccccc4COc4cc(F)ccc43)ccc2n1[C@H]1C[C@@H]2COCCN2C1 | ≤ 10 |
| N#C/N=c1/[nH]c2cc(/C=C3/c4ccc(F)cc4OCc4c(F)cccc43)ccc2n1[C@@H]1C[C@@H]2COCCN2C1 | ≤ 10 |
| C[C@H](CN1CCOCC1)n1/c(=N\C#N)[nH]c2cc(/C=C3/c4ccc(F)cc4OCc4c(F)cccc43)ccc21 | ≤ 10 |
| CN1C[C@H](O)[C@@H](n2/c(=N/C#N)[nH]c3cc(/C=C4\c5ccccc5COc5cc(F)ccc54)ccc32)C1 | ≤ 10 |
| N#C/N=c1\[nH]c2cc(/C=C3/c4ccc(F)cc4OCc4c(F)cccc43)ccc2n1[C@@H]1C[C@H]2COCCN2C1 | ≤ 10 |
| N#C/N=c1/[nH]c2cc(/C=C3/c4ccc(F)cc4OCc4c(F)cccc43)ccc2n1[C@H]1C[C@H]2COCCN2C1 | ≤ 10 |
| C[C@H](CN1CCOCC1)n1/c(=N\C#N)[nH]c2cc(/C=C3\c4ccc(F)cc4COc4cc(F)ccc43)ccc21 | 0.79 |
| CN1CCN(n2/c(=N\C#N)[nH]c3cc(/C=C4\c5ccccc5COc5cc(F)ccc54)ccc32)CC1 | 0.08 |
| N#C/N=c1/[nH]c2cc(/C=C3/c4ccc(F)cc4OCc4c(F)cccc43)ccc2n1[C@H]1C[C@@H]2COCCN2C1 | 0.23 |
| C[C@@H](CN1CCOCC1)n1/c(=N/C#N)[nH]c2cc(/C=C3\c4ccccc4COc4cc(F)ccc43)ccc21 | ≤ 10 |
| C[C@H](CN1CCOCC1)n1/c(=N\C(N)=O)[nH]c2cc(/C=C3\c4ccccc4COc4cc(F)ccc43)ccc21 [LY2623091] | 0.33 |
| C[C@@H](CN1CCOCC1)n1/c(=N/C#N)[nH]c2cc(/C=C3\c4ccc(F)cc4COc4cc(F)ccc43)ccc21 | ≤ 10 |

target: T2, Mineralocorticoid receptor (Homo sapiens) (UniProt P08235); experiment: Antagonist activity at full-length human MR expressed in CHO-K1 cells assessed as inhibition of aldosterone-induced response measured after overnight incubation by luminesence analysis; format: cell-based
T2 sequence (whole entry): T1 sequence (P08235 whole entry)

| SMILES | Inhibitory potency [nM] |
| --- | --- |
| CCC(c1ccc(C(F)(F)F)cc1)(C(O)C(F)F)n1ncc2c(NS(=O)(=O)CC)cc(F)cc21 (configuration not stated) | 11 |
| CCC(O)C(CC(F)F)(c1ccc(C(F)(F)F)cc1)n1ncc2c(NS(C)(=O)=O)cccc21 (configuration not stated) | 15 |
| CCC(O)C(CC)(c1ccc(Br)cc1)n1ncc2c(NS(C)(=O)=O)cccc21 (configuration not stated) | 3 |
| CCC(O)C(CC)(c1ccc(C(F)(F)F)cc1)n1ncc2c(NS(C)(=O)=O)cc(F)cc21 (configuration not stated) | 9 |
| CCC(c1ccc(C(F)(F)F)cc1)(C(O)C(F)F)n1ncc2c(NS(=O)(=O)CC)cccc21 (configuration not stated) | 4 |

target: T1, Mineralocorticoid receptor; experiment: Antagonist activity at Gal4-fused human MR LBD (671 to 984 residues) expressed in African Green Monkey CV-1 cells assessed as inhibition of aldosterone-induced transactivation activity after 20 hrs by luciferase reporter gene assay; format: cell-based

| SMILES | IC50 [nM] |
| --- | --- |
| Cc1c(C(=O)Nc2ccc(S(C)(=O)=O)cc2)cn([C@H](C)[C@H](C)O)c1-c1ccc(F)cc1C(F)(F)F | 3.8 |
| Cc1c(C(=O)Nc2ccc(S(C)(=O)=O)cc2)cc(C[C@H](C)O)n1-c1ccc(Cl)cc1C(F)(F)F (single isomer, unassigned; atropisomer 2) | > 1000 |
| Cc1cc(C(=O)NCCc2ccccc2)c(C)n1-c1ccccc1C(F)(F)F | < 500 |
| Cc1c(C(=O)Nc2ccc(S(C)(=O)=O)cc2)cn([C@H](C)[C@H](C)O)c1-c1ccc(F)cc1C(F)(F)F (single isomer, unassigned; atropisomer 2) | > 1000 |
| Cc1ccc(NC(=O)c2cc(C)n(-c3ccccc3C(F)(F)F)c2C)cc1Cl | < 500 |
| Cc1c(C(=O)Nc2ccc(S(C)(=O)=O)cc2)cc(C[C@H](C)O)n1-c1ccc(Cl)cc1-c1ccc(F)cc1 (single isomer, unassigned; atropisomer 2) | > 1000 |
| Cc1cc(C(=O)Nc2cccc3ccccc23)c(C)n1-c1ccccc1C(F)(F)F | < 500 |
| Cc1cc(C(=O)Nc2ccc(S(N)(=O)=O)cc2)c(C)n1-c1ccccc1C(F)(F)F | < 500 |
| Cc1c(C(=O)Nc2ccc(S(C)(=O)=O)cc2)cc(CCF)n1-c1ccc(F)cc1OC(F)F (single isomer, unassigned; atropisomer 2) | > 1000 |
| Cc1c(C(=O)Nc2ccc(S(C)(=O)=O)cc2)cc([C@H](C)[C@H](C)O)n1-c1ccc(F)cc1C(F)(F)F (mixture of isomers) | 6.2 |
| Cc1c(C(=O)Nc2ccc(S(C)(=O)=O)cc2)cc(CCO)n1-c1ccc(Cl)cc1C(F)(F)F (single isomer, unassigned; atropisomer 2) | > 1000 |
| Cc1[nH]c(C(=O)Nc2ccc(S(C)(=O)=O)cc2)c(C)c1-c1ccccc1C(F)(F)F | < 500 |

target: T1, Mineralocorticoid receptor; experiment: Displacement of [3H]-Aldosterone from MR overexpressed in human 293 cells measured after overnight incubation by TopCount method; format: cell-based

| SMILES | Ki [nM] |
| --- | --- |
| CCC(CC)(c1ccc2c(c1)OCCO2)c1c[nH]c2c(NS(C)(=O)=O)cccc12 | ≤ 500 |
| CCC(CC)(c1ccc(O)cc1)c1c[nH]c2c(NS(C)(=O)=O)cccc12 | ≤ 500 |
| CCC(CC)(c1ccc(Cl)cc1)c1c[nH]c2c(NS(C)(=O)=O)cccc12 | ≤ 500 |
| CCC(CC)(c1ccccc1)c1c[nH]c2c(NS(C)(=O)=O)cccc12 | ≤ 500 |
| CCC(CC)(c1ccc2ncsc2c1)c1c[nH]c2c(NS(C)(=O)=O)cccc12 | ≤ 500 |
| CCC(CC)(c1cc2ccccc2o1)c1c[nH]c2c(NS(C)(=O)=O)cccc12 | ≤ 500 |

target: T1, Mineralocorticoid receptor; experiment: Antagonist activity at Gal4-fused human MR LBD (734 to 985 residues) expressed in CHO-K1 cells after 5 to 6 hrs by luciferase reporter gene assay; format: cell-based

| SMILES | IC50 [nM] |
| --- | --- |
| COC(=O)c1c(C)nc(C)c(C(=O)CC2CCC2)c1-c1cccc2c(=O)cc(C)oc12 | 18 |
| CC(=O)C1=C(C)NC(C)=C(C(=O)OC2CCC2)[C@@H]1c1cccc2c(=O)cc(C)oc12 | 7 |
| CC1=C(C#N)C(c2cccc3c(=O)cc(C)oc23)C(C(=O)OC(C)C)=C(C)N1 (configuration not stated) | 160 |
| CC1=C(C#N)C(c2cccc3c2-c2ccccc2C3=O)C(C(=O)OC(C)C)=C(C)N1 (configuration not stated) | 23 |
| CCc1cnc2cccc(C3C(C#N)=C(C)NC(C)=C3C(=O)OC(C)C)c2c1 (configuration not stated) | 310 |
| CCOc1nccc2c1C(c1ccc(C#N)cc1OC)C(C#N)=C(C)N2 (configuration not stated) | 100 |

target: T3, Mineralocorticoid receptor (Rattus norvegicus, UniProt P22199); experiment: Displacement of [3H]-Aldosterone from MR in Sprague-Dawley rat kidney cytosolic fraction measured after overnight incubation by liquid scintillation counting method
T3 sequence (P22199 whole entry): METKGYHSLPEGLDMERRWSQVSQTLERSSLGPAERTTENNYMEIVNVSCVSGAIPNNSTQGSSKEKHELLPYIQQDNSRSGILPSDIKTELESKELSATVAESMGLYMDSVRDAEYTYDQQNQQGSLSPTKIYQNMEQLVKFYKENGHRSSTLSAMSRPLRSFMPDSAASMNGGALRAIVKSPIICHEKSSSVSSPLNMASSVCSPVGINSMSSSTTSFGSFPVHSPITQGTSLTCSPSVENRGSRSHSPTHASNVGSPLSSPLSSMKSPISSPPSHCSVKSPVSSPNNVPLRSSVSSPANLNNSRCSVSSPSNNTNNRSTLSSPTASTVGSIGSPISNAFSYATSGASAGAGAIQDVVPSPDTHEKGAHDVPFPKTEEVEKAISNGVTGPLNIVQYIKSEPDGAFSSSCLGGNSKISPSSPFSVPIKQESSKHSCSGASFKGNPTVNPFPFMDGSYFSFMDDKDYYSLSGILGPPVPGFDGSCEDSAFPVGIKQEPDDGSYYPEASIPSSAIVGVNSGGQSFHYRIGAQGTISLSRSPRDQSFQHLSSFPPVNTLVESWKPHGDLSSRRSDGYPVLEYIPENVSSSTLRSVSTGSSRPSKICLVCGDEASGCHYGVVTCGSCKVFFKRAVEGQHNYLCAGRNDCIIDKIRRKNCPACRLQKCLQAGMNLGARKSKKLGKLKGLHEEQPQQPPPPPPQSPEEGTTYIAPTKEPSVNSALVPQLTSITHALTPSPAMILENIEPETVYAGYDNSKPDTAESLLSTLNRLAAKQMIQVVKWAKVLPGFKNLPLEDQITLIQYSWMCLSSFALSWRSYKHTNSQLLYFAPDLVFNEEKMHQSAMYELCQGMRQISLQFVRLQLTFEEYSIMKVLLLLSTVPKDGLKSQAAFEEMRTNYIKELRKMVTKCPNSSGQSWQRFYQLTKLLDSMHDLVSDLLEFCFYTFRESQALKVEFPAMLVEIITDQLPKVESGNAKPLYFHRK

| SMILES | IC50 [nM] |
| --- | --- |
| CC1(C)N=C(c2ccc(Cl)cc2)c2ccc(NS(C)(=O)=O)cc2O1 | < 500 |
| Cc1cc(Cl)ccc1C1=CC(C)(C)Oc2cc(NS(C)(=O)=O)ccc21 | < 500 |
| CC1=C(c2ccc(F)cc2)c2ccc(NS(C)(=O)=O)cc2OC1(C)C | < 500 |
| Cc1cc(NS(C)(=O)=O)cc2c1C(c1ccc(F)cc1)=NC(C)(C)O2 | < 500 |

system: not listed separately; experiment: Displacement of [3H]-Aldosterone from recombinant rhesus monkey MR expressed in baculovirus infected insect cells after 3 hrs by filter-based Topcount method; parameters: species or system Macaca mulatta

| SMILES | Ki [nM] |
| --- | --- |
| CCSC1=C(C#N)C(c2ccccc2Cl)C(C(=O)Nc2ccccc2OC)=C(C)N1 (configuration not stated) | 53 |
| COC(=O)C1=C(C)NC(C)=C(C(=O)OC)C1c1cccc2ccccc12 | 61 |
| CCCSC1=C(C#N)C(c2ccccc2Cl)C(C(=O)Nc2ccccc2OC)=C(C)N1 (configuration not stated) | 14.9 |
| Cc1cccc(Cn2ccnc2C(c2ccccc2)c2ccccc2)c1 | 134 |
| CC(c1ccccc1)n1ccnc1C(c1ccccc1)c1ccccc1 (configuration not stated) | 285 |
| COc1cc(C2C(C(=O)Oc3ccccc3)=C(C)NC(C)=C2C(=O)Oc2ccccc2)ccc1O | 21.5 |
